The values below come from US6683183B2, “Pyridotriazines and pyridopyridazines” (Warner-Lambert Company, priority 2000, dated 2004).

One data set has as its target T1, FGFR-1 (Homo sapiens, UniProt P11362).
T1 construct: The kinase domains from FGFR-1, VEGFR-2, Lck, and PDGF were purified from baculoviral vectors expression systems; made in house; host or cells: baculovirus expression system (insect cells)
The data set is described as follows: FGFR tyrosine kinase inhibition (DELFIA). The class given is biochemical. The note with it: kinase domain at 20 nM. The text has this: (§1) Full-length cDNAs for the mouse PDGF-β and human FGF-1 (flg) receptor tyrosine kinases were obtained from J. Escobedo and prepared as described in J. Biol. Chem., 1991;262:1482-1487. PCR primers were designed to amplify a fragment of DNA that codes for the intracellular tyrosine kinase domain. The fragment was inserted into a baculovirus vector, cotransfected with AcMNPV DNA, and the recombinant virus isolated. SF9 insect cells were infected with the virus to overexpress the protein, and the cell lysate was used for the assay. […] Filters were washed three times with 15% TCA containing 100 mM sodium pyrophosphate, and the radioactivity retained on the filters counted in a Wallac 1250 Betaplate reader. Nonspecific activity was defined as radioactivity retained on the filters following incubation of samples with buffer alone (no enzyme). […]
(§2) The inhibition activity of the compounds in Examples 7 and 8 were also evaluated using the Dissociated Enhanced Lanthanide Fluoroimmuno Assay (DELFIA) (Frank Loganzo and Carolyn Harady. A sensitive, time-resolved fluorometric assay for the detection of inhibitors of phosphotyrosine kinases. American Biotechnology Laboratory, December 1998). […] One hundred microliter DELFIA Enhancement Solution (EG&G Wallac) was added and time-resolved fluorescence of the reactions determined using a VICTOR2 1420 multilable counter (EG&G Wallac). […]

Another data set has as its target T2, VEGFR-2 (Homo sapiens, UniProt P35968).
T2 construct: The kinase domains from FGFR-1, VEGFR-2, Lck, and PDGF were purified from baculoviral vectors expression systems; made in house; host or cells: baculovirus expression system (insect cells)
The experiment in a line: VEGFR-2 tyrosine kinase inhibition (DELFIA). The class given is biochemical. The note with it: kinase domain at 20 nM; read-out: (VEGF-2) (IC50 = μM). The protocol:
(§3) The inhibition activity of the compounds in Examples 7 and 8 were also evaluated using the Dissociated Enhanced Lanthanide Fluoroimmuno Assay (DELFIA) (Frank Loganzo and Carolyn Harady. A sensitive, time-resolved fluorometric assay for the detection of inhibitors of phosphotyrosine kinases. American Biotechnology Laboratory, December 1998). DELFIA plates (EG&G Wallac, Gaithersburg, Md.) were coated overnight with Poly Glu Tyr (4:1) (Sigma, St. Louis, Mo.) overnight at room temperature, washed (DELFIA wash reagent, EG&G Wallac), and spotted with 1 μL inhibitor dilution or DMSO carrier control per well. In some cases, kinase was autophosphorylated prior to analysis by incubating 45 minutes at 4° C. in the presence of 4 mM ATP and 25 mM MgCl2. A typical 100 μL kinase assay reaction contained 20 mM Tris (pH 7.5), 20 mM MgCl2, 50 mM NaCl, 5 mM DTT, 200 μM ATP, and protease inhibitors (Mini EDTA-free protease inhibitor cocktail tablets, Boehringer Mannheim, Indianapolis, Ind.), 40 μM ATP, and an appropriate concentration of inhibitor. The reaction was allowed to continue for 30 minutes at room temperature. […] One hundred microliter DELFIA Enhancement Solution (EG&G Wallac) was added and time-resolved fluorescence of the reactions determined using a VICTOR2 1420 multilable counter (EG&G Wallac). […]

In the next data set the target is T3, PDGF (Mus musculus, UniProt P05622).
T3 construct: The kinase domains from FGFR-1, VEGFR-2, Lck, and PDGF were purified from baculoviral vectors expression systems; made in house; host or cells: baculovirus expression system (insect cells)
The data set is described as follows: PDGF receptor tyrosine kinase inhibition (DELFIA). The class given is biochemical. The conditions noted are these: kinase domain at 20 nM.
Text: as §1, §2

In the next data set the target is T4, Lck (Homo sapiens, UniProt P06239).
T4 construct: The kinase domains from FGFR-1, VEGFR-2, Lck, and PDGF were purified from baculoviral vectors expression systems; made in house; host or cells: baculovirus expression system (insect cells)
The data set is described as follows: Lck kinase inhibition (DELFIA). The class given is biochemical. The conditions noted are these: kinase domain at 20 nM. The protocol:
as §3

In the next data set the target is T5, c-Src (Homo sapiens, UniProt P12931).
T5 construct: purchased Upstate Biotechnology, Lake Placid, N.Y
The experiment in a line: c-Src kinase inhibition (DELFIA). The class given is biochemical. The conditions noted are these: c-Src at 3 units per reaction. As to the method:
c-Src kinase is purified from baculovirus infected insect cell lysates using an antipeptide monoclonal antibody directed against the N-terminal amino acids (amino acids 2-17) of c-Src. The antibody, covalently linked to 0.65 μm latex beads, is added to a suspension of insect cell lysis buffer comprised of 150 mM NaCl, 50 mM Tris pH 7.5, 1 mM DTT, 1% NP-40, 2 mM EGTA, 1 mM sodium vanadate, 1 mM PMSF, 1 μg/mL each of leupeptin, pepstatin, and aprotinin. Insect cell lysate containing c-Src protein is incubated with these beads for 3 to 4 hours at 4° C. with rotation. […] The filters are then punched, counted in a liquid scintillation counter, and the data examined for inhibitory activity in comparison to a known inhibitor such as erbstatin. […]
as §2

T5 sequence (P12931 whole entry, species assumed): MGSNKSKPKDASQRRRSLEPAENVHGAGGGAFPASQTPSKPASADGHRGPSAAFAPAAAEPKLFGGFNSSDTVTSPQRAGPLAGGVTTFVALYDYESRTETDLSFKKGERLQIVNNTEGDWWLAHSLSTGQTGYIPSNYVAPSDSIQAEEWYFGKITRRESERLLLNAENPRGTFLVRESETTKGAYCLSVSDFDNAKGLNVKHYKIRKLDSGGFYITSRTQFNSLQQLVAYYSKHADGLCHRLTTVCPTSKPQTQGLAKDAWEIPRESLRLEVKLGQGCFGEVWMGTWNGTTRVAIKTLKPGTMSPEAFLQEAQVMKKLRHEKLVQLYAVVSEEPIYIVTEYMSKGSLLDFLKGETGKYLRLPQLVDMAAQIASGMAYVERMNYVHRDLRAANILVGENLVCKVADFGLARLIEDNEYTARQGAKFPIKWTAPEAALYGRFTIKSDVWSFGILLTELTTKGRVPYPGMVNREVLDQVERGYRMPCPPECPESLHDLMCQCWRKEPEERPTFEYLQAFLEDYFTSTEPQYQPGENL
T1 sequence (P11362 478-767 limits assumed): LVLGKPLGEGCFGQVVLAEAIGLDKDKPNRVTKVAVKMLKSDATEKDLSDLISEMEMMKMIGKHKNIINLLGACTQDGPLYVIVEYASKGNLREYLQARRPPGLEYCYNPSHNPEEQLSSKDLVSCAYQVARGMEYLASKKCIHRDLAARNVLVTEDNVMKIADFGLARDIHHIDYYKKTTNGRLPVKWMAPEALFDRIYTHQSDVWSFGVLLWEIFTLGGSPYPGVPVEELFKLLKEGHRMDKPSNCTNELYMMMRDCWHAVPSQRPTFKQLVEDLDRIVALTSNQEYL
T3 sequence (P05622 599-961 limits assumed): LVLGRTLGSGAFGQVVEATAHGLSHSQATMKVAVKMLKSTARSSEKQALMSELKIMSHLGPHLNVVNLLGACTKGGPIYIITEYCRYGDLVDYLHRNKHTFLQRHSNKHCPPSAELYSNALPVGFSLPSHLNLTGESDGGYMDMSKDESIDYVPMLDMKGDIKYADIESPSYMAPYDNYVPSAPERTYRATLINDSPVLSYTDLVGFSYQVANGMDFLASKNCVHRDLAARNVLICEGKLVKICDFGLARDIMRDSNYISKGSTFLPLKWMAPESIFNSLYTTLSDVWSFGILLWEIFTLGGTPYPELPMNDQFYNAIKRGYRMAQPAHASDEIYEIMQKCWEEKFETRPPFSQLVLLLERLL
T2 sequence (P35968 834-1162 limits assumed, species assumed): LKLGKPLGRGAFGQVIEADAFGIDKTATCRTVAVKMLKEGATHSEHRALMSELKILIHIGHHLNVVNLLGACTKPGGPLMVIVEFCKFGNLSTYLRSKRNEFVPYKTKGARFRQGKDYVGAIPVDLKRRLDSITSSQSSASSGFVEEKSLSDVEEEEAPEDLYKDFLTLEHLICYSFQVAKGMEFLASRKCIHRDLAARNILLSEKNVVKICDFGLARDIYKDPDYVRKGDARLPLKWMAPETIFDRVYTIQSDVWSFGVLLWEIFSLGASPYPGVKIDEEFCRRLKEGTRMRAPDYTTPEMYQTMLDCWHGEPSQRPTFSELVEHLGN
T4 sequence (P06239 245-498 limits assumed, species assumed): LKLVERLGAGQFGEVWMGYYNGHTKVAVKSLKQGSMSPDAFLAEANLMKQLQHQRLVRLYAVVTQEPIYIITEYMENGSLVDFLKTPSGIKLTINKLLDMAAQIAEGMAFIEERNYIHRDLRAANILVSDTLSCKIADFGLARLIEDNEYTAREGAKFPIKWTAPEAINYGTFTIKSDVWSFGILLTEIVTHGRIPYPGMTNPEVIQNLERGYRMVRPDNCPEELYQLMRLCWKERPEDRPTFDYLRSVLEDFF

Take `CCn1c(=O)c(-c2cc(OC)cc(OC)c2)cc2nnc(Nc3ccncc3)nc21` [Example 8, 7-(3,5-Dimethoxy-phenyl)-5-ethyl-3-(pyridin-4-ylamino)-5H-pyrido[2,3-e]-1,2,4-triazin-6-one]: the IC50 was 1.22 µM against FGFR-1, 0.35 µM on VEGFR-2, over 50 µM against PDGF and over 4 µM against c-Src. The Ki at Lck is over 4 µM.
Consider `CCN(CC)CCCCNc1nnc2cc(-c3cc(OC)cc(OC)c3)c(=O)n(CC)c2n1` [Example 7, 3-(4-Diethylamino-butylamino)-7-(3,5-dimethoxy-phenyl)-5-ethyl-5H-pyrido[2,3-e]-1,2,4-triazin-6-one], for which the melting point is 120 to 121 °C (dec.). Also, the IC50 against FGFR-1 was 6.04 µM. This compound also showed an IC50 on PDGF of over 50 µM. Also, at c-Src, the IC50 stood at 10.6 µM.
